Literature values, collected in patent US20080015223A1, “Pyrazole Derivatives as Modulators of the 5-Ht2a Serotonin Receptor Useful for the Treatment of Disorders Related Thereto” (Arena Pharmaceuticals, Inc., priority 2004, published 2008).

How the values were obtained:
[1] = 24 months of treatment, patients
[2] = glaucoma patients
rats [3] = system: rats
[4] = humans, lumbar disc herniation
rats [5] = system: rats; remark: listed apart in the source
[6] = system: spontaneously hypertensive rats

COc1cccc(CCc2ccccc2OCC(CN(C)C)OC(=O)CCC(=O)O)c1 (stereo not drawn) [sarpogrelate]
urinary albumin excretion level [1]: significantly reduced | IOP [2]: significantly lower | analgesic effect on thermal induced pain (rats [3]; intraperitoneal administration): significant analgesic effect | analgesic effect on inflammatory pain (rats [3]; intrathecal or intraperitoneal administration): significant analgesic effect | treatment for lower back pain, leg pain and numbness associated with sciatica [4]: effective treatment

Cc1nc2sccn2c(=O)c1CCN1CCC(=C(c2ccc(F)cc2)c2ccc(F)cc2)CC1 [ritanserin]
JC virus infection of human glial cells (JC virus): inhibited

CN1CCN2c3ccccc3Cc3ccccc3C2C1 (stereo not drawn) [Mainserin]
DOCA-salt induced hypertension (rats [5]): prevent

O=C(c1ccc(F)cc1)C1CCN(CCn2c(=O)[nH]c3ccccc3c2=O)CC1 [ketanserin]
JC virus infection of human glial cells (JC virus): inhibited | blood pressure [6]: stabilize
